The values that follow are results of earlier work, collected in patent US7790164B2, “Fragments of antibodies to epidermal growth factor receptor and methods of their use” (Van Andel Research Institute, priority 2007, dated 2010).

The data set relates to A431 cells. Conditions: Ojima et al. J Med Chem 2002, read-out: IC50 of A431 to paclitaxel; cited from earlier work.

Turning to `CC(=O)O[C@H]1C(=O)[C@@]2(C)[C@H]([C@H](OC(=O)c3ccccc3)[C@]3(O)C[C@H](OC(=O)[C@H](O)[C@@H](NC(=O)c4ccccc4)c4ccccc4)C(C)=C1C3(C)C)[C@]1(OC(C)=O)CO[C@@H]1C[C@@H]2O` [paclitaxel], the 50% inhibitory concentration (IC50) – broadly, the midpoint of a concentration-inhibition curve – was around 0.09 nM.
